From PubChem BioAssay (NCI)
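Five compound concentrations were applied to cells in 96-well plates for 48 hours; endpoints were derived by simple linear interpolation of the resulting dose-response curve. TGI denotes the concentration required for complete inhibition of growth.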

Columns and labels:
Assay in all cases: NCI-60 cell line screen, 48 h
[1] = test system: 786-0 renal
[2] = test system: A498 renal
[3] = test system: A549 NSCLC
[4] = test system: ACHN renal
[5] = test system: CAKI-1 renal
[6] = test system: CCRF-CEM leukemia
[7] = test system: COLO 205 colon
[8] = test system: DLD-1 colon
[9] = test system: DMS 114 small cell lung
[10] = test system: DMS 273 small cell lung
[11] = test system: EKVX NSCLC
[12] = test system: HCT-116 colon
[13] = test system: HCT-15 colon
[14] = test system: HOP-62 NSCLC
[15] = test system: HOP-92 NSCLC
[16] = test system: HT29 colon
[17] = test system: IGROV1 ovarian
[18] = test system: K-562 leukemia
[19] = test system: KM12 colon
[20] = test system: KM20L2 colon
[21] = test system: LXFL 529 NSCLC
[22] = test system: M14 melanoma
[23] = test system: M19-MEL melanoma
[24] = test system: MALME-3M melanoma
[25] = test system: MOLT-4 leukemia
[26] = test system: NCI-H226 lung
[27] = test system: NCI-H23 lung
[28] = test system: NCI-H460 lung
[29] = test system: NCI-H522 lung
[30] = test system: OVCAR-3 ovarian
[31] = test system: OVCAR-5 ovarian
[32] = test system: OVCAR-8 ovarian
[33] = test system: RPMI-8226 leukemia
[34] = test system: RXF-631 renal
[35] = test system: SF-268 CNS
[36] = test system: SF-539 CNS
[37] = test system: SK-MEL-2 melanoma
[38] = test system: SK-MEL-5 melanoma
[39] = test system: SK-OV-3 ovarian
[40] = test system: SN12C renal
[41] = test system: SNB-19 CNS
[42] = test system: SNB-75 CNS
[43] = test system: SNB-78 CNS
[44] = test system: SR leukemia
[45] = test system: SW-620 colon
[46] = test system: U251 CNS
[47] = test system: UACC-62 melanoma
[48] = test system: UO-31 renal
[49] = test system: XF 498 CNS

Measured: TGI

CCOC(=O)C(=O)Nc1c(N(CC)CC)n2ccccc2nc1=O
> 100 µM: [1] | [2] | [3] | [4] | [5] | [6] | [7] | [8] | [9] | [10] | [11] | [12] | [13] | [14] | [15] | [16] | [17] | [18] | [19] | [20] | [21] | [22] | [23] | [24] | [25] | [26] | [27] | [28] | [29] | [30] | [31] | [32] | [33] | [34] | [35] | [36] | [37] | [38] | [39] | [40] | [41] | [42] | [43] | [44] | [45] | [46] | [47] | [48] | [49]
